Measured values reported in patent US20080025931A1, “Cosmetic method for limiting age-related hollowing of the face” (priority 2006, published 2008).

Experiments:
[1] = test system: human adipocytes obtained from the abdominal region; experiment: Stimulation of lipogenesis by measuring the incorporation of 14C-acetate into the lipids; type: cell-based; details: for % control (incorporation of 14C-acetate into lipids): 1 h preincubation, 4 h treatment
Experimental: The activity of a Vitreoscilla filiformis cell extract as prepared according to Example 1 on a local adipose development was evaluated. The study was carried out on human adipocytes obtained from the abdominal region. Various parameters representing the adipocyte physiology were analysed: • a) stimulation of lipogenesis by measurement of the incorporation of ^14C-acetate into lipids; • b) stimulation of adipocyte differentiation by measuring the expression of adipocyte differentiation markers: LPL (lipoprotein lipase, involved in the storage of fat; • c) monitoring of the enrichment in lipids by specific staining (AdipoRed™) and imaging; • d) monitoring of the cell size/size distribution by flow cytometry and fluorescent labelling (AdipoRed™). Stimulation of Lipogenesis by Measuring the Incorporation of ^14C-acetate into the Lipids The adipocytes were isolated after an abdominal plastic surgery operation and then incubated in the presence of collagenase and then washed and taken up in test medium. This test medium contained: • product to be tested (Vitreoscilla filiformis extract at various concentrations/theophylline 1 mM/isoproterenol 1 μM), or nothing for the control • bicarbonate 1.87 mg/ml • penicillin/streptomycin 25 IU/ml/25 μg/ml • glutamine 2 mM • MEM without phenol red qs 100% (v/v) supplemented with lipid-free bovine serum albumin at 0.5% (w/v). The products to be tested and the adipocytes were preincubated at 37° C. for 1 h, and then ^14C-acetate was added at 50 μCi/ml. After 4 h of treatment, the lipids were extracted with methanol/chloroform/water and the incorporated radioactivity was counted by liquid scintillation.

[2] = test system: LPL (lipoprotein lipase); experiment: Stimulation of adipocyte differentiation: expression of LPL marker by RT-Q-PCR in pre-adipocytes; type: cell-based, human; details: 25 ng/ml; 4 days; control differentiated cells = 100
Experimental: The activity of a Vitreoscilla filiformis cell extract as prepared according to Example 1 on a local adipose development was evaluated. The study was carried out on human adipocytes obtained from the abdominal region. Various parameters representing the adipocyte physiology were analysed: • a) stimulation of lipogenesis by measurement of the incorporation of ^14C-acetate into lipids; • b) stimulation of adipocyte differentiation by measuring the expression of adipocyte differentiation markers: LPL (lipoprotein lipase, involved in the storage of fat; • c) monitoring of the enrichment in lipids by specific staining (AdipoRed™) and imaging; • d) monitoring of the cell size/size distribution by flow cytometry and fluorescent labelling (AdipoRed™). […]
At the end of the treatment, the supernatants were removed and the cells rinsed in PBS and a volume of 300 μl of Tri-Reagent was added to each well. The expression of the LPL marker was evaluated by RT-Q-PCR on messenger RNAs extracted from the cellular lawns of each treatment. […]
The incorporation of fluorescence into the amplified DNA was measured continuously during the PCR cycles. A relative expression value was evaluated for the LPL marker, expressed in arbitrary units according to the following formula: (½^number of cycles)×10^6
The results are expressed as % relative expression compared with the control.

[3] = test system: Normal human pre-adipocytes; experiment: Enrichment with lipids by AdipoRed staining and imaging (Spectramax reader); type: cell-based; details: differentiated cells, 25 ng/ml
Experimental: (§1) Normal human pre-adipocytes were cultured in PGM growth medium at 37° C. and 5% CO2 until confluent. At confluence (D0), the cells were placed in differentiation medium (series 1, differentiated cells) or normal growth medium (series 2, undifferentiated cells), containing or not containing (control) the test products or the reference (TNFα, differentiation inhibitor). The cells were then incubated at 37° C. and 5% CO2 for 4 days.
Monitoring of the Enrichment with Lipids by Specific Staining (AdipoRed™) and Imaging
At the end of the treatments, the cells were rinsed in PBS and then the intracellular lipids were stained with AdipoRed from BioWhittaker. The stained cells were observed by optical microscopy, with the Spectramax reader.
(§2) The results are expressed as % increase relative to the control.

[4] = test system: Normal human pre-adipocytes; experiment: Cell size/size distribution by flow cytometry and AdipoRed fluorescent labelling; type: cell-based; details: differentiated cells; 25 ng/ml
Experimental: as §1
Monitoring of the Cell Size/Size Distribution by Flow Cytometry and AdipoRed™ Fluorescent Labelling
At the end of the treatments, the cells were rinsed in PBS and then the intracellular lipids were stained with AdipoRed from BioWhittaker.
At the end of the incubation, the cells were rinsed, trypsinized and then analysed by flow cytometry. The differentiation of the pre-adipocytes manifested itself at the morphological level by an increase in the number of intracytoplasmic lipid vesicles and an increase in the size of the cells.
as §2

C/C=C/C/C=C/CCC(=O)[C@H]1O[C@H]1C(N)=O [Cerulenin]
% control (incorporation of 14C-acetate into lipids) ([1]; 20 μM): 34 % control | incorporation of acetate into lipids (in words) ([1]; tested at 0.02 mM): significantly inhibited

CC(C)NCC(O)c1ccc(O)c(O)c1 (stereo not shown) [Isoproterenol]
% control (incorporation of 14C-acetate into lipids) ([1]; 1 μM): 3400 % control

TNFα
LPL, % relative expression compared with the control [2]: 111% | lipid level (in words) [3]: reduced the lipid level | % control (intracellular lipids, AdipoRed, Spectramax) ([3]; 4 days): 83 % control | % control (AdipoRed measurement, flow cytometry) [4]: 80 % control
